Source: patent publication US20250171457A1, “NITROGEN-CONTAINING HETEROCYCLIC COMPOUND HAVING NRF2 ACTIVATION EFFECT” (CHUGAI SEIYAKU KABUSHIKI KAISHA, priority 2022, published 2025)

Tested on: Nrf2 transcriptional activity (pARE-Luc reporter) in HepG2 cells
Test: In vitro Nrf2 transcriptional activity measurement by ARE-dependent reporter assay in HepG2 cell
Type: cell-based, human
Conditions: Homo sapiens; HepG2 cells transfected with pARE-Luc, 4 hours at 37° C.; luciferase activity of Example 1-54 or Example 17-23 at 3.75 μM defined as 100%
Procedure, shortened: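 Luminescence readout (Bright-Glo) after 4 h, 37° C compound exposure of HepG2 cells carrying the ARE-luciferase vector pGL4.37. Each well converted to % response versus reference compound at 3.75 μM, and EC50 derived from dose-response curves.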

Q: `CN1CC=C(c2cc(Cl)c(C(=O)N3COc4c(cccc4-c4cc(N5CCOCC5)c(C(=O)O)cc4F)C3)c(Cl)c2)CC1` [Compound 2-3, 4-[3-[2,6-Dichloro-4-(1-methyl-3,6-dihydro-2H-pyridin-4-yl)benzoyl]-2,4-dihydro-1,3-benzoxazin-8-yl]-5-fluoro-2-morpholin-4-ylbenzoic acid] was tested. Which EC50 did it give?
A: 1.4 nM

Q: How did the EC50 turn out when `O=C(O)c1cc(F)c(-c2cccc3c2OCN(C(=O)c2c(Cl)cc(N4CC5(CN(CC(F)(F)F)C5)C4)cc2Cl)C3)cc1N1C2CCC1COC2` [Compound 7-5, 4-[3-[2,6-Dichloro-4-[6-(2,2,2-trifluoroethyl)-2,6-diazaspiro[3.3]heptan-2-yl]benzoyl]-2,4-dihydro-1,3-benzoxazin-8-yl]-5-fluoro-2-(3-oxa-8-azabicyclo[3.2.1]octan-8-yl)benzoic acid] was run?
A: 3.7 nM

Q: For `O=C(O)c1cc(F)c(-c2cccc3c2OCN(C(=O)c2c(Cl)cc(N4CCn5nccc5C4)cc2Cl)C3)cc1N1C2CCC1COC2` [Compound 1-39], which EC50 is on record?
A: 18 nM

Q: How did the EC50 turn out when `C[C@@H]1COCCN1c1cc(Cl)c(C(=O)N2COc3c(cccc3-c3cc(N4C5CCC4COC5)c(C(=O)O)cc3F)C2)c(Cl)c1` [Compound 1-42, 4-[3-[2,6-Dichloro-4-[(3R)-3-methylmorpholin-4-yl]benzoyl]-2,4-dihydro-1,3-benzoxazin-8-yl]-5-fluoro-2-(3-oxa-8-azabicyclo[3.2.1]octan-8-yl)benzoic acid] was run?
A: 2.6 nM

Q: Which EC50 does the source give for `COCCN1CC[C@H](Oc2cc(Cl)c(C(=O)N3COc4c(cccc4-c4cc(N5CCOCC5)c(C(=O)O)cc4F)C3)c(Cl)c2)C1` [Compound 8-6, 4-[3-[2,6-Dichloro-4-[(3S)-1-(2-methoxyethyl)pyrrolidin-3-yl]oxybenzoyl]-2,4-dihydro-1,3-benzoxazin-8-yl]-5-fluoro-2-morpholin-4-ylbenzoic acid] here?
A: 2.7 nM

Q: With `CO[C@H]1C[C@H]2CN(c3cc(Cl)c(C(=O)N4COc5c(cccc5-c5cc(N6C7CCC6COC7)c(C(=O)O)cc5F)C4)c(Cl)c3)C[C@H]21` (racemic) [Compound 6-12, 4-[3-[2,6-Dichloro-4-[rac-(1R,5S,6S)-6-methoxy-3-azabicyclo[3.2.0]heptan-3-yl]benzoyl]-2,4-dihydro-1,3-benzoxazin-8-yl]-5-fluoro-2-(3-oxa-8-azabicyclo[3.2.1]octan-8-yl)benzoic acid] as the molecule, how does the EC50 read?
A: 3.9 nM

Q: `O=C(O)c1cc(F)c(-c2cccc3c2OCN(C(=O)c2c(Cl)cc(N4C5COCC4C5)cc2Cl)C3)cc1N1C2CCC1COC2` [Compound 1-5, 4-[3-[2,6-Dichloro-4-(3-oxa-6-azabicyclo[3.1.1]heptan-6-yl)benzoyl]-2,4-dihydro-1,3-benzoxazin-8-yl]-5-fluoro-2-(3-oxa-8-azabicyclo[3.2.1]octan-8-yl)benzoic acid] was tested. Which EC50 did it give?
A: 3.1 nM

Q: For `O=C(O)c1ccc(-c2cccc3c2OCN(C(=O)c2c(Cl)cc(N4CC[C@@H](O)C4)cc2Cl)C3)cc1N1CCOCC1` [Compound 4-20, 4-[3-[2,6-Dichloro-4-[(3R)-3-hydroxypyrrolidin-1-yl]benzoyl]-2,4-dihydro-1,3-benzoxazin-8-yl]-2-morpholin-4-ylbenzoic acid], which EC50 is on record?
A: 3 nM

Q: For `COCC1CN(c2cc(Cl)c(C(=O)N3COc4c(cccc4-c4cc(N5CCOCC5)c(C(=O)O)cc4F)C3)c(Cl)c2)CCN1C` (stereo not shown) [Compound 4-30, 4-[3-[2,6-Dichloro-4-[3-(methoxymethyl)-4-methylpiperazin-1-yl]benzoyl]-2,4-dihydro-1,3-benzoxazin-8-yl]-5-fluoro-2-morpholin-4-ylbenzoic acid], which EC50 is on record?
A: 1.1 nM

Q: `O=C(O)c1cc(F)c(-c2cccc3c2OCN(C(=O)c2c(Cl)cc(N4CCC(CO)CC4)cc2Cl)C3)cc1N1CCOCC1` [Compound 4-27, 4-[3-[2,6-Dichloro-4-[4-(hydroxymethyl)piperidin-1-yl]benzoyl]-2,4-dihydro-1,3-benzoxazin-8-yl]-5-fluoro-2-morpholin-4-ylbenzoic acid] was tested. Which EC50 did it give?
A: 1.1 nM

Q: How did the EC50 turn out when `O=C(O)c1cc(F)c(-c2cccc3c2OCN(C(=O)c2c(Cl)cc(N4CCCN(C5COC5)CC4)cc2Cl)C3)cc1N1CCOCC1` [Compound 10-9, 4-[3-[2,6-Dichloro-4-[4-(oxetan-3-yl)-1,4-diazepan-1-yl]benzoyl]-2,4-dihydro-1,3-benzoxazin-8-yl]-5-fluoro-2-morpholin-4-ylbenzoic acid] was run?
A: 1.2 nM

Q: For `C[C@H]1CN(C)CCN1c1cc(Cl)c(C(=O)N2COc3c(cccc3-c3cc(N4C5CCC4COC5)c(C(=O)O)cc3F)C2)c(Cl)c1` [Compound 9-12, 4-[3-[2,6-Dichloro-4-[(2S)-2,4-dimethylpiperazin-1-yl]benzoyl]-2,4-dihydro-1,3-benzoxazin-8-yl]-5-fluoro-2-(3-oxa-8-azabicyclo[3.2.1]octan-8-yl)benzoic acid], which EC50 is on record?
A: 3.1 nM

Q: How did the EC50 turn out when `C[C@@H]1CN(c2cc(F)c(C(=O)N3COc4c(cccc4-c4cc(N5C6CCC5COC6)c(C(=O)O)cc4F)C3)c(Cl)c2)[C@H](C)CN1C` [Compound 19-3, 4-[3-[2-Chloro-6-fluoro-4-[(2R,5R)-2,4,5-trimethylpiperazin-1-yl]benzoyl]-2,4-dihydro-1,3-benzoxazin-8-yl]-5-fluoro-2-(3-oxa-8-azabicyclo[3.2.1]octan-8-yl)benzoic acid] was run?
A: 1.2 nM

Q: For `CC(C)(O)CCOc1cc(Cl)c(C(=O)N2COc3c(cccc3-c3cc(N4C5CCC4COC5)c(C(=O)O)cc3F)C2)c(Cl)c1` [Compound 4-35, 4-[3-[2,6-Dichloro-4-(3-hydroxy-3-methylbutoxy)benzoyl]-2,4-dihydro-1,3-benzoxazin-8-yl]-5-fluoro-2-(3-oxa-8-azabicyclo[3.2.1]octan-8-yl)benzoic acid], which EC50 is on record?
A: 20 nM

Q: How did the EC50 turn out when `CC[C@H](CC(=O)O)c1cccc2c1C(=O)NN(C(=O)c1c(Cl)cc(-c3cnn(C)c3)cc1Cl)C2` [Compound 17-4, (3R)-3-[2-[2,6-Dichloro-4-(1-methylpyrazol-4-yl)benzoyl]-4-oxo-1,3-dihydrophthalazin-5-yl]pentanoic acid] was run?
A: 10 nM

Q: How did the EC50 turn out when `Cn1cc2nc(-c3cc(Cl)c(C(=O)N4COc5c(cccc5-c5cc(N6C7CCC6COC7)c(C(=O)O)cc5F)C4)c(Cl)c3)ccc2n1` [Compound 3-13, 4-[3-[2,6-Dichloro-4-(2-methylpyrazolo[4,3-b]pyridin-5-yl)benzoyl]-2,4-dihydro-1,3-benzoxazin-8-yl]-5-fluoro-2-(3-oxa-8-azabicyclo[3.2.1]octan-8-yl)benzoic acid] was run?
A: 9.7 nM

Q: `COC1CC2(C1)CN(c1cc(Cl)c(C(=O)N3COc4c(cccc4-c4cc(N5CC6CCC(C5)O6)c(C(=O)O)cc4F)C3)c(Cl)c1)C2` [Compound 4-56, 4-[3-[2,6-Dichloro-4-(6-methoxy-2-azaspiro[3.3]heptan-2-yl)benzoyl]-2,4-dihydro-1,3-benzoxazin-8-yl]-5-fluoro-2-(8-oxa-3-azabicyclo[3.2.1]octan-3-yl)benzoic acid] was tested. Which EC50 did it give?
A: 1.9 nM

Q: Which EC50 does the source give for `CN1CCN(c2cc(Cl)c(C(=O)N3COc4c(cccc4-c4ccc(C(=O)O)c(N5CCOCC5)c4)C3)c(Cl)c2)CC1` [Compound 1-64, 4-[3-[2,6-Dichloro-4-(4-methylpiperazin-1-yl)benzoyl]-2,4-dihydro-1,3-benzoxazin-8-yl]-2-morpholin-4-ylbenzoic acid] here?
A: 3 nM

Q: For `Cn1cc(-c2cc(Cl)c(C(=O)N3Cc4cccc(-c5ccc(C(=O)O)c(N6CCOCC6)c5)c4CN3)c(Cl)c2)cn1` [Compound 13-2, 4-[2-[2,6-Dichloro-4-(1-methylpyrazol-4-yl)benzoyl]-3,4-dihydro-1H-phthalazin-5-yl]-2-morpholin-4-ylbenzoic acid], which EC50 is on record?
A: 18 nM

Q: Which EC50 does the source give for `COC[C@@H]1CN(C)CCN1c1cc(Cl)c(C(=O)N2COc3c(cccc3-c3cc(N4C5CCC4COC5)c(C(=O)O)cc3F)C2)c(Cl)c1` [Compound 19-19, 4-[3-[2,6-Dichloro-4-[(2S)-2-(methoxymethyl)-4-methylpiperazin-1-yl]benzoyl]-2,4-dihydro-1,3-benzoxazin-8-yl]-5-fluoro-2-(3-oxa-8-azabicyclo[3.2.1]octan-8-yl)benzoic acid] here?
A: 2.6 nM

Q: For `CCN1CCN(c2cc(Cl)c(C(=O)N3COc4c(cccc4-c4cc(N5C6CCC5COC6)c(C(=O)O)cc4F)C3)c(Cl)c2)[C@H](C)C1` [Compound 9-22, 4-[3-[2,6-Dichloro-4-[(2R)-4-ethyl-2-methylpiperazin-1-yl]benzoyl]-2,4-dihydro-1,3-benzoxazin-8-yl]-5-fluoro-2-(3-oxa-8-azabicyclo[3.2.1]octan-8-yl)benzoic acid], which EC50 is on record?
A: 0.9 nM

Q: How did the EC50 turn out when `COCCOc1cc(Cl)c(C(=O)N2COc3c(cccc3-c3cc(N4CCOCC4)c(C(=O)O)cc3F)C2)cc1OC` [Compound 4-55, 4-[3-[2-Chloro-5-methoxy-4-(2-methoxyethoxy)benzoyl]-2,4-dihydro-1,3-benzoxazin-8-yl]-5-fluoro-2-morpholin-4-ylbenzoic acid] was run?
A: 2 nM

Q: How did the EC50 turn out when `COCCOC1CC2(C1)CN(c1cc(Cl)c(C(=O)N3COc4c(cccc4-c4cc(N5C6CCC5COC6)c(C(=O)O)cc4F)C3)c(Cl)c1)C2` [Compound 6-9, 4-[3-[2,6-Dichloro-4-[6-(2-methoxyethoxy)-2-azaspiro[3.3]heptan-2-yl]benzoyl]-2,4-dihydro-1,3-benzoxazin-8-yl]-5-fluoro-2-(3-oxa-8-azabicyclo[3.2.1]octan-8-yl)benzoic acid] was run?
A: 2.2 nM

Q: How did the EC50 turn out when `Cn1cc(-c2cc(Cl)c(C(=O)N3COc4c(cccc4-c4ccc(-c5nnn[nH]5)c(N5CCOCC5)c4)C3)c(Cl)c2)cn1` [Compound 16-5, [2,6-Dichloro-4-(1-methylpyrazol-4-yl)phenyl]-[8-[3-morpholin-4-yl-4-(1H-tetrazol-5-yl)phenyl]-2,4-dihydro-1,3-benzoxazin-3-yl]methanone] was run?
A: 200 nM

Q: Which EC50 does the source give for `O=C(O)c1cc(F)c(-c2cccc3c2OCN(C(=O)c2c(Cl)cc(N4CC(O)(c5ccccc5)C4)cc2Cl)C3)cc1N1C2CCC1COC2` [Compound 1-16, 4-[3-[2,6-Dichloro-4-(3-hydroxy-3-phenylazetidin-1-yl)benzoyl]-2,4-dihydro-1,3-benzoxazin-8-yl]-5-fluoro-2-(3-oxa-8-azabicyclo[3.2.1]octan-8-yl)benzoic acid] here?
A: 11 nM
